Earlier results, collected in US20100273711A1, “INDIVIDUALIZED CANCER TREATMENTS” (priority 2007, published 2010).

Assays:
Molt-4 = conditions: pemetrexed, cell line Molt-4; cited from earlier work
257p = conditions: pemetrexed, cell line 257P; cited from earlier work
C8161 = conditions: pemetrexed, cell line C8161; cited from earlier work
MDA-MB-435 = conditions: pemetrexed, cell line MDA-MB-435; cited from earlier work
SNB-19 = conditions: pemetrexed, cell line SNB-19; cited from earlier work
MDA-MB-231 = conditions: pemetrexed, cell line MDA-MB-231; cited from earlier work
HCT-116 = conditions: pemetrexed, cell line HCT-116; cited from earlier work
HL-60 = conditions: pemetrexed, cell line HL-60; cited from earlier work
OAW42 = conditions: pemetrexed, cell line OAW42; cited from earlier work
HS578T = conditions: pemetrexed, cell line HS578T; cited from earlier work
OVKAR = conditions: pemetrexed, cell line OVKAR; cited from earlier work
R103 = conditions: pemetrexed, cell line R103; cited from earlier work
ME43 = conditions: pemetrexed, cell line me43; cited from earlier work
SK-MEL-28 = conditions: pemetrexed, cell line SK-MEL-28; cited from earlier work
NCI-H460 = conditions: pemetrexed, cell line NCI-H460; cited from earlier work

Measured: Resistant (Res) or Sensitive (Sen)

Nc1nc2[nH]cc(CCc3ccc(C(=O)N[C@@H](CCC(=O)O)C(=O)O)cc3)c2c(=O)[nH]1 [Pemetrexed, pemetrexed]
Res: Molt-4 | 257p | C8161 | HCT-116 | HL-60 | ME43 | NCI-H460
Sen: all other assays above
